Tests used:
Type in all cases: biochemical
[1] = biological target: CDK-2/Cyclin A (Homo sapiens, UniProt P24941); experiment: CDK-2 inhibition assay (coupled enzyme assay)
Experimental: To an assay stock buffer solution containing 0.1M HEPES 7.5, 10 mM MgCl2, 1 mM DTT, 25 mM NaCl, 2.5 mM phosphoenolpyruvate, […], […], […], […], and 100 μM peptide ([…], American Peptide, Sunnyvale, Calif.) was added a DMSO solution of a compound of the present invention to a final concentration of 30 μM.
The Ki values were determined from the rate data as a function of inhibitor concentration.

[2] = biological target: ERK2 (Homo sapiens, UniProt P28482); experiment: ERK2 inhibition assay (spectrophotometric coupled-enzyme assay); settings: read-out: ERK2 Inhibitory Activity (Ki class D-F)
Sequence of ERK2 (P28482 whole entry): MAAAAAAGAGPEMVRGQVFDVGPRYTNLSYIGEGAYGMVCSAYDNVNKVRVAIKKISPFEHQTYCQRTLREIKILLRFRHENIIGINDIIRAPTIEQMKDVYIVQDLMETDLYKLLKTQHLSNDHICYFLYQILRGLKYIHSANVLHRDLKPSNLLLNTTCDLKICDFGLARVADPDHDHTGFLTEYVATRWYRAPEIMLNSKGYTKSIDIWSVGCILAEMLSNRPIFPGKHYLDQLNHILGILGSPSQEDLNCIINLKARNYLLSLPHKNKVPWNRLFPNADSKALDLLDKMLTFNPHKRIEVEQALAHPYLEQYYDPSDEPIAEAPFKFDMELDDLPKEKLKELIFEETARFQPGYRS
Experimental: The IC50 was evaluated from the rate data as a function of inhibitor concentration. […] The compound numbers correspond to the compound numbers in Table 1.

[3] = biological target: T1, GSK-3β (AA 1–420) (Homo sapiens, UniProt P49841); experiment: GSK-3 inhibition assay (coupled enzyme system); settings: read-out: GSK3 Inhibitory Activity (Ki class)
T1 construct: GSK-3β (AA 1–420)
T1 sequence (P49841 whole entry, species assumed, the tested form may be a part): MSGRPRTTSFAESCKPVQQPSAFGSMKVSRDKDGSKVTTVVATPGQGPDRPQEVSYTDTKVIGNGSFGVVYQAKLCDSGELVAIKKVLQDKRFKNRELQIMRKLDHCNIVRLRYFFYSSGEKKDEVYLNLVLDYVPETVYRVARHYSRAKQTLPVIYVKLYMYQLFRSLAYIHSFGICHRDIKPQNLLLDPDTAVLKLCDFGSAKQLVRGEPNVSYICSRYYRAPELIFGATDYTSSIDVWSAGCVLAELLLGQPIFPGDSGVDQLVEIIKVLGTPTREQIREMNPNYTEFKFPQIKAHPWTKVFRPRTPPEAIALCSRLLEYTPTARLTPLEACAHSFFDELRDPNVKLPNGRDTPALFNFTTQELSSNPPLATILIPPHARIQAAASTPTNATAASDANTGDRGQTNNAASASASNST
Outline: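 ADP production read via pyruvate kinase/lactate dehydrogenase–coupled NADH consumption over 10 min at 30 °C. Ki derived from rates versus inhibitor concentration.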

SMILES	Ki [1] [nM]	Ki [2] [nM]	Ki [3] [nM]
Cc1cnc(N[C@H](CO)c2ccccc2)nc1-c1c[nH]c(C(=O)N[C@H](CO)c2ccccc2)c1 [III-a-155, 4-[2-(2-Hydroxy-1-(S)-phenyl-ethylamino)-5-methyl-pyrimidin-4-yl]-1H-pyrrole-2-carboxylic acid (2-hydroxy-1-(S)-phenyl-ethyl)-amide]	100 to 1000	< 100	100 to 1000
COc1ccccc1Nc1ncc(C)c(-c2c[nH]c(C(=O)NC(CO)c3ccccc3)c2)n1 (centres unmarked) [III-a-156, 4-[2-(2-Methoxy-phenylamino)-5-methyl-pyrimidin-4-yl]-1H-pyrrole-2-carboxylic acid (2-hydroxy-1-phenyl-ethyl)-amide]	1000 to 20000	–	100 to 1000
Cc1cnc(NCc2ccccc2)nc1-c1c[nH]c(C(=O)NC(CO)c2ccccc2)c1 (centres unmarked) [III-a-150, 4-(2-Benzylamino-5-methyl-pyrimidin-4-yl)-1H-pyrrole-2-carboxylic acid (2-hydroxy-1-phenyl-ethyl)-amide]	100 to 1000	< 100	100 to 1000
Cc1cnc(NOC(C)C)nc1-c1c[nH]c(C(=O)NC(CO)c2ccccc2)c1 (centres unmarked) [III-a-207, 4-(2-Isopropoxyamino-5-methyl-pyrimidin-4-yl)-1H-pyrrole-2-carboxylic acid (2-hydroxy-1-phenyl-ethyl)-amide]	–	< 100	100 to 1000
Cc1cccc(C(CO)NC(=O)c2cc(-c3nc(NC(C)CO)ncc3C)c[nH]2)c1 (centres unmarked) [III-a-222, 4-[2-(2-Hydroxy-1-methyl-ethylamino)-5-methyl-pyrimidin-4-yl]-1H-pyrrole-2-carboxylic acid (2-hydroxy-1-m-tolyl-ethyl)-amide]	–	< 100	100 to 1000
Cc1cnc(Nc2ccccc2)nc1-c1c[nH]c(C(=O)NC(CO)c2cccc(C(F)(F)F)c2)c1 (centres unmarked) [III-a-146, 4-(5-Methyl-2-phenylamino-pyrimidin-4-yl)-1H-pyrrole-2-carboxylic acid [2-hydroxy-1-(3-trifluoromethyl-phenyl)-ethyl]-amide]	100 to 1000	–	100 to 1000
CCNc1ncc(C)c(-c2c[nH]c(C(=O)NC(CO)c3cc(F)cc(C(F)(F)F)c3)c2)n1 (centres unmarked) [III-a-190, 4-(2-Ethylamino-5-methyl-pyrimidin-4-yl)-1H-pyrrole-2-carboxylic acid [1-(3-fluoro-5-trifluoromethyl-phenyl)-2-hydroxy-ethyl]-amide]	–	100 to 1000	100 to 1000
COc1ccccc1C(CO)NC(=O)c1cc(-c2nc(NC3CC3)ncc2C)c[nH]1 (centres unmarked) [III-a-203, 4-(2-Cyclopropylamino-5-methyl-pyrimidin-4-yl)-1H-pyrrole-2-carboxylic acid [2-hydroxy-1-(2-methoxy-phenyl)-ethyl]-amide]	–	< 100	100 to 1000
Cc1cnc(NCC(C)O)nc1-c1c[nH]c(C(=O)NC(CO)c2ccccc2)c1 (centres unmarked) [III-a-177, 4-[2-(2-Hydroxy-propylamino)-5-methyl-pyrimidin-4-yl]-1H-pyrrole-2-carboxylic acid (2-hydroxy-1-phenyl-ethyl)-amide]	–	< 100	100 to 1000
Cc1cnc(NC(C)CO)nc1-c1c[nH]c(C(=O)NC(CO)c2ccccc2)c1 (centres unmarked) [III-a-176, 4-[2-(2-Hydroxy-1-methyl-ethylamino)-5-methyl-pyrimidin-4-yl]-1H-pyrrole-2-carboxylic acid (2-hydroxy-1-phenyl-ethyl)-amide]	–	< 100	< 100
Cc1cnc(NCC(F)(F)F)nc1-c1c[nH]c(C(=O)NC(CO)c2ccccc2)c1 (centres unmarked) [III-a-154, 4-[5-Methyl-2-(2,2,2-trifluoro-ethylamino)-pyrimidin-4-yl]-1H-pyrrole-2-carboxylic acid (2-hydroxy-1-phenyl-ethyl)-amide]	–	< 100	< 100
Cc1cnc(Nc2ccccc2Cl)nc1-c1c[nH]c(C(=O)NC(CO)c2cccc(C(F)(F)F)c2)c1 (centres unmarked) [III-a-200, 4-[2-(2-Chloro-phenylamino)-5-methyl-pyrimidin-4-yl]-1H-pyrrole-2-carboxylic acid [2-hydroxy-1-(3-trifluoromethyl-phenyl)-ethyl]-amide]	–	< 100	> 1000
CONc1ncc(C)c(-c2c[nH]c(C(=O)NC(CO)c3ccccc3)c2)n1 (centres unmarked) [III-a-206, 4-(2-Methoxyamino-5-methyl-pyrimidin-4-yl)-1H-pyrrole-2-carboxylic acid (2-hydroxy-1-phenyl-ethyl)-amide]	–	< 100	< 100

Next, values leading:

Ki [1] [nM]	Ki [2] [nM]	Ki [3] [nM]	SMILES
< 100	< 100	< 100	Cc1cnc(Nc2ccc(OCc3ccccc3)cc2)nc1-c1c[nH]c(C(=O)NC(CO)c2ccccc2)c1 (centres unmarked) [III-a-152, 4-[2-(4-Benzyloxy-phenylamino)-5-methyl-pyrimidin-4-yl]-1H-pyrrole-2-carboxylic acid (2-hydroxy-1-phenyl-ethyl)-amide]
< 100	< 100	< 100	Cc1cnc(Nc2cccc(C(F)(F)F)c2)nc1-c1c[nH]c(C(=O)NC(CO)c2ccccc2)c1 (centres unmarked) [III-a-149, 4-[5-Methyl-2-(3-trifluoromethyl-phenylamino)-pyrimidin-4-yl]-1H-pyrrole-2-carboxylic acid (2-hydroxy-1-phenyl-ethyl)-amide]
1000 to 20000	< 100	< 100	Cc1cnc(NCC2CC2)nc1-c1c[nH]c(C(=O)NC(CO)c2ccccc2)c1 (centres unmarked) [III-a-159, 4-[2-(Cyclopropylmethyl-amino)-5-methyl-pyrimidin-4-yl]-1H-pyrrole-2-carboxylic acid (2-hydroxy-1-phenyl-ethyl)-amide]
100 to 1000	< 100	< 100	Cc1cnc(NC2CC2)nc1-c1c[nH]c(C(=O)N[C@H](CO)c2ccccc2)c1 [III-a-162, 4-(2-Cyclopropylamino-5-methyl-pyrimidin-4-yl)-1H-pyrrole-2-carboxylic acid (2-hydroxy-1-(S)-phenyl-ethyl)-amide]
100 to 1000	< 100	< 100	Cc1cnc(NC2(CO)CC2)nc1-c1c[nH]c(C(=O)NC(CO)c2ccccc2)c1 (centres unmarked) [III-a-174, 4-[2-(1-Hydroxymethyl-cyclopropylamino)-5-methyl-pyrimidin-4-yl]-1H-pyrrole-2-carboxylic acid (2-hydroxy-1-phenyl-ethyl)-amide]
100 to 1000	< 100	< 100	Cc1cnc(Nc2cccc(F)c2)nc1-c1c[nH]c(C(=O)NC(CO)c2cccc(C(F)(F)F)c2)c1 (centres unmarked) [III-a-148, 4-[2-(3-Fluoro-phenylamino)-5-methyl-pyrimidin-4-yl]-1H-pyrrole-2-carboxylic acid [2-hydroxy-1-(3-trifluoromethyl-phenyl)-ethyl]-amide]
–	< 100	< 100	Cc1cccc(C(CO)NC(=O)c2cc(-c3nc(Nc4ccccc4C)ncc3C)c[nH]2)c1 (centres unmarked) [III-a-223, 4-(5-Methyl-2-o-tolylamino-pyrimidin-4-yl)-1H-pyrrole-2-carboxylic acid (2-hydroxy-1-m-tolyl-ethyl)-amide]
–	< 100	< 100	Cc1cnc(Nc2cccnc2)nc1-c1c[nH]c(C(=O)NC(CO)c2ccccc2)c1 (centres unmarked) [III-a-215, 4-[5-Methyl-2-(pyridin-3-ylamino)-pyrimidin-4-yl]-1H-pyrrole-2-carboxylic acid (2-hydroxy-1-phenyl-ethyl)-amide]

Reference: patent publication US7253187B2, “Heterocyclic inhibitors of ERK2 and uses thereof” (Vertex Pharmaceuticals Incorporated, priority 2001, dated 2007)
